Assay results published in patent publication US5444042A, “Method of treatment of neurodegeneration with calpain inhibitors” (Cortex Pharmaceuticals, priority 1994, dated 1995).

Columns and labels:
Papain = target: T1, Papain (Carica papaya, UniProt P00784); assay: Papain inhibition, Ki by Dixon plot (Table PKC1); format: biochemical; conditions: 0.05M Tris-HCl pH 7.5, 2 mM EDTA, 5 mM cysteine, 1% DMSO, 25° C., substrate Nα-Benzoyl-Arg-AMC; read-out: Ki P (Papain)
T1 sequence (P00784 134-345): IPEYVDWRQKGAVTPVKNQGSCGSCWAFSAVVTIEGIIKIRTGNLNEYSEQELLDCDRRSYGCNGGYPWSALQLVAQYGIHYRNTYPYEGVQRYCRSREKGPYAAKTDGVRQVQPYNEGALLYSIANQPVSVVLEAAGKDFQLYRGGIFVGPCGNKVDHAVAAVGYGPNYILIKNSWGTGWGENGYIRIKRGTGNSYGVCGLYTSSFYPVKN
Procedure: Various concentrations of inhibitors in dimethylsulfoxide (DMSO) were added to the assay mixture, which contained buffer and substrate. The reaction was started by the addition of the enzyme and the hydrolysis rates were followed spectrophotometrically or fluorimetrically. 88 mM KH2 PO4, 12 mM Na2 HPO4, 1.33 mM EDTA, 2.7 mM cysteine, pH 6.0 was used as a buffer for cathepsin B; and 20 mM Hepes, 10 mM CaCl2, 10 mM β-mercaptoethanol, pH 7.2 buffer was utilized for calpain I and calpain II.
All peptide thioester hydrolysis rates were measured with assay mixtures containing 4,4'-dithiodipyridine [e324=19800 M-1 cm-1; Grasetti & Murray, Arch. Biochem. Biophys. 119, pp 41-49 (1967)]. Papain was assayed with Bz-Arg-AMC or Bz-Arg-NA [Kanaoka et al., Chem. Pharm. Bull. 25, 3126-3128 (1977)], and the AMC (7-amino-4-methylcoumarin) release was followed fluorimetrically (excitation at 380 nm, and emission at 460 nm). Cathepsin B was assayed with Z-Arg-Arg-AFC [Barrett and Kirschke, Methods Enzymol. 80, 535-561 (1981)], and the AFC (7-amino-4-trifluoromethylcoumarin) release was followed fluorimetrically (excitation at 400 nm, and emission at 505 nm). Calpain I from human erythrocytes and calpain II from rabbit were assayed using Suc-Leu-Tyr-AMC [Sasaki et al., J. Biol. Chem. 259, 12489-12494 (1984), hereby incorporated by reference], and the AMC (7-amino-4-methylcoumarin) release was followed fluorimetrically (excitation at 380 nm, and emission at 460 nm). Enzymatic hydrolysis rates were measured at various substrate and inhibitor concentrations, and Ki values were determined by Dixon plot.
The inhibition constants for papain shown in Table PKC1 were measured in 0.05M Tris-HCl, pH 7.5 buffer, containing 2 mM EDTA, 5 mM cysteine (freshly prepared), 1% DMSO, at 25° C., using N^α -Benzoyl-Arg-AMC as a substrate, except that those values of inhibition constants for papain marked with an "e" in Table PKC1 were measured in 50 mM Tris-HCl, pH 7.5 buffer, containing 20 mM EDTA, 5 mM cysteine, 9% DMSO, at 25° C., using N^α -Benzoyl-Arg-NA as a substrate.

Calpain II = target: T2, Calpain II (Homo sapiens, UniProt P17655); assay: Calpain II 14C-methylated casein proteolysis (Table 1A); format: biochemical
T2 construct: from tissue; purified by a cited method
T2 sequence (P17655 1-700): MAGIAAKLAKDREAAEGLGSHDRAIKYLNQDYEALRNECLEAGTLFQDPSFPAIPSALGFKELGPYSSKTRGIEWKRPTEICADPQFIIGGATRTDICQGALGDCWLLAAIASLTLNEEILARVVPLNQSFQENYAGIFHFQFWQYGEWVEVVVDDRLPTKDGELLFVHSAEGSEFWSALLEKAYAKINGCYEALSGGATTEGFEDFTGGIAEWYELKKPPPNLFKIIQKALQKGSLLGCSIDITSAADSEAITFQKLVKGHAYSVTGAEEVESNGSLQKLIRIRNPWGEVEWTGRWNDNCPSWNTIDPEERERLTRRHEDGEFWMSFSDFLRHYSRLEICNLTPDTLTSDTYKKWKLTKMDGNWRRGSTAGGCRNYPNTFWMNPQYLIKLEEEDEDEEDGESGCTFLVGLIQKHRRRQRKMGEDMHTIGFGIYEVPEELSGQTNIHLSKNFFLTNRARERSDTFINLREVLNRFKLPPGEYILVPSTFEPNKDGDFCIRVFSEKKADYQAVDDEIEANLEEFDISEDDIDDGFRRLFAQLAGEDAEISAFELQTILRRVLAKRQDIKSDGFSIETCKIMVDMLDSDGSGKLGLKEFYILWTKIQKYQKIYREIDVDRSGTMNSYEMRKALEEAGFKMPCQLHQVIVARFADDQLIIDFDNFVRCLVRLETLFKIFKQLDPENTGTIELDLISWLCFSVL
T2 sequence (P04632 1-268 partner): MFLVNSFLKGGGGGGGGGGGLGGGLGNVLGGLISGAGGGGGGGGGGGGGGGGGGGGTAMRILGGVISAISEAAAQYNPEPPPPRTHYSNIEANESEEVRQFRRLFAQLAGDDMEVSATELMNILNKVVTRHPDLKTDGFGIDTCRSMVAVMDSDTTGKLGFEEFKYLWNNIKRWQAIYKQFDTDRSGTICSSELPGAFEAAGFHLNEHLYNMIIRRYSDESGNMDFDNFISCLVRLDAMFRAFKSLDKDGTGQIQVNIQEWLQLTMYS
Procedure: The isocoumarins are irreversible inhibitors of Calpain. We obtained IC50 values for a variety of these Calpain Inhibitors as a kinetic analysis of these compounds.
Calpains I and II were purified by the method of (Yoshimura, et al. 1983). (Kitahara 1984) provides an alternative purification scheme. Calpain II may alternatively be purchased from Sigma Chemical Co. as "Calcium Activated Neutral Protease." In this assay, purified Calpain was incubated with ^14 C-methylated casein in the presence of various Heterocyclic Compounds and the amount of acid-soluble radioactivity released by the action of Calpain was measured.

| SMILES | Ki (Papain) [µM] | IC50 (Calpain II) [µM] |
| --- | --- | --- |
| CCC(NC(=O)[C@@H]1CCCN1C(=O)[C@H](C)NC(=O)[C@H](C)NC(=O)CCC(=O)OC)C(=O)C(=O)OC (mixture of isomers) [MeO-Suc-Ala-Ala-Pro-Abu-COOMe, MeO-Suc-Ala-Ala-Pro-DL-Abu-CO2 Me] | 0.7 | – |
| CCOC(=O)C(=O)C(CC)NC(=O)[C@H](C)NC(=O)[C@H](C)NC(=O)OCc1ccccc1 (mixture of isomers) [Z-Ala-Ala-DL-Abu-COOEt, Z-Ala-Ala-DL-Abu-CO2 Et] | 0.9 | – |
| N=C(N)SCCCOc1oc(=O)c2ccccc2c1Cl [CiTprOIC, 4-chloro-3-(3-isothiureidopropoxy)isocoumarin] | – | 70 |
| N=C(N)SCCCOc1oc(=O)c2cc(N)ccc2c1Cl [NH2 -CiTPrOIC (ACITIC), 7-amino-4-chloro-3-(3-isothiureidopropoxy)isocoumarin] | – | 120 |
